“And” between values parts separate entries of the source, which are not always exact repeats. Equal values may be shown once. Read-outs that look alike come from different tables or passages of the source.
Assays:
[1] = molecular target: MCL-1 (Homo sapiens, UniProt Q07820); experiment: Protein-protein interaction assay MCL-1/Noxa BH3 peptide (MCL-1 assay), TR-FRET; type: binding; conditions: MBP-MCL-1 / Noxa BH3-derived peptide, median
Outline: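 IC50 came from a 4-parameter fit of the normalized 665/620 nm TR-FRET ratio (anti-MBP Eu-cryptate/streptavidin-XL665). Compounds (0.1 nM–20 μM, duplicates) were preincubated 10 min at 22 °C with 1 nM MBP-MCL-1 in pH 7 Tris/NaCl/KF buffer, then read after 1 h at 22 °C plus overnight at 4 °C.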

[2] = system: SUDHL5; experiment: Induction of caspase-3/7 activity (Caspase-Glo 3/7), SUDHL5; type: cell-based; conditions: caspase-3/7 induction, SUDHL5 cells, 3 h treatment, median
Outline: (§1)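 DLBCL lines SUDHL5 and SUDHL10 treated with compounds for 3 h at 37 °C; caspase-3/7 activity read by Caspase-Glo 3/7 luminescence. Medium-only background subtracted; EC50 fitted with bottom fixed at 1 and top fixed at the reference compound's maximal induction.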

[3] = system: SUDHL10; experiment: Induction of caspase-3/7 activity (Caspase-Glo 3/7), SUDHL10; type: cell-based; conditions: caspase-3/7 induction, SUDHL10 cells, 3 h treatment, median
Outline: as §1

[4] = system: SUDHL5; experiment: Anti-proliferative effect (CellTiter-Glo, 72 h), SUDHL5; type: cell-based; conditions: SUDHL5 cells, antiproliferation, 72 h incubation, median, read-out: Antiproli SUDHL5 [M] (median)
Outline: (§2)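 Cells plated and incubated with compounds for 72 h at 37 °C, with a parallel day 0 reference plate for time-zero signal. Viability read by CellTiter-Glo luminescence after 10 min, measured identically on the day 0 and 72 h plates.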

[5] = system: SUDHL10; experiment: Anti-proliferative effect (CellTiter-Glo, 72 h), SUDHL10; type: cell-based; conditions: SUDHL10 cells, antiproliferation, 72 h incubation, median, read-out: Antiproli SUDHL10 [M] (median)
Outline: as §2

[6] = system: OPM2; experiment: Anti-proliferative effect (CellTiter-Glo, 72 h), OPM2; type: cell-based; conditions: OPM2 cells, median, read-out: IC50 antiproliferation assay OPM2 [M] (median)
Outline: as §2

[7] = system: A2780; experiment: Anti-proliferative effect (CellTiter-Glo, 72 h), A2780; type: cell-based; conditions: A2780 cells, median, read-out: IC50 antiproliferation assay A2780 [M] (median)
Outline: as §2

[8] = system: SUDHL5; experiment: Induction of cytotoxicity (CellTiter-Glo, 5 h), SUDHL5
[9] = system: SUDHL10; experiment: Induction of cytotoxicity (CellTiter-Glo, 5 h), SUDHL10
[10] = read-out: Cytotox SUDHL5 [M] (median), SUDHL5 cells, cytotoxicity induction, CellTiter-Glo, 5 h incubation, median
[11] = read-out: Cytotox SUDHL10 [M] (median), SUDHL10 cells, cytotoxicity induction, CellTiter-Glo, 5 h incubation, median
[12] = Homo sapiens, SU-DHL-5, 5 h, read-out: Cytotox SUDHL5 [M] (median), SUDHL5 cells, cytotoxicity induction, CellTiter-Glo, 5 h incubation, median
[13] = Homo sapiens, SU-DHL10, 5 h, read-out: Cytotox SUDHL10 [M] (median), SUDHL10 cells, cytotoxicity induction, CellTiter-Glo, 5 h incubation, median

MCL-1, sequence (Q07820 whole entry): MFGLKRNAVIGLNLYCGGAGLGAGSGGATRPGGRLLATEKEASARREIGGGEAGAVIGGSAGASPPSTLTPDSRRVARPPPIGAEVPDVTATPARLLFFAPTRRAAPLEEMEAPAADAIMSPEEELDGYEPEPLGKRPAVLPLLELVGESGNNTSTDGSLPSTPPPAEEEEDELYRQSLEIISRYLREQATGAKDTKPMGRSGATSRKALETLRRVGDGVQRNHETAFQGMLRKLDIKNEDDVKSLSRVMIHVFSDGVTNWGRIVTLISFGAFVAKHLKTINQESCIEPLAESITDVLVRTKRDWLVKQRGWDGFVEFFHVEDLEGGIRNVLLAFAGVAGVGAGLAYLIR

Row | IC50 [1] | EC50 [2] | EC50 [3] | IC50 [4] | IC50 [5] | IC50 [7] | EC50 ([2]; Homo sapiens, SU-DHL-5, 3 h) | EC50 ([3]; Homo sapiens, SU-DHL10, 3 h) | IC50 ([4]; Homo sapiens, SU-DHL-5, 72 h) | IC50 ([5]; Homo sapiens, SU-DHL10, 72 h) | IC50 ([7]; Homo sapiens, A2780, 72 h) | Structure (SMILES) | IC50 [6] | IC50 [8, 10] | IC50 [9, 11] | IC50 ([6]; Homo sapiens, OPM-2, 72 h) | IC50 [8, 12] | IC50 [9, 13]
1 | 35.9 nM | 28.4 µM | > 33 µM and 30.6 µM | 9.42e-06 M | 6.21e-06 M | 1.38e-05 M | – | – | – | – | – | Cc1nn(C)c2c1-c1cccc3c(CCCOc4cccc5ccccc45)c(C(=O)O)n(c13)CCCN(c1ccc(N3CCOCC3)cc1)C2 (single isomer, unassigned; enantiomer 2) [Example 1-100, 9,11-Dimethyl-7-[4-(morpholin-4-yl)phenyl]-1-[3-(1-naphthyloxy)propyl]-4,5,6,7,8,9-hexahydropyrazolo[3′,4′:7,8][1,5]diazecino[9,10,1-hi]indole-2-carboxylic Acid (Enantiomer 2)] | 1.94e-05 M | > 3.3e-05 M | > 3.3e-05 M and 3.29e-05 M | – | – | –
2 | 1.06 nM | – | – | – | – | – | 2.34 µM | 2.82 µM | 2.41e-06 M | 2.49e-06 M | 1.29e-05 M | Cn1nc(COc2ccc(N3CCN(C(=O)C4CC4)CC3)cc2)c2c1COCCCCn1c(C(=O)O)c(CCCOc3cccc4ccccc34)c3cccc-2c31 (racemic) [Example 1-21, (rac)-3-({4-[4-(cyclopropylcarbonyl)piperazin-1-yl]phenoxy}methyl)-1-methyl-7-[3-(naphthalen-1-yloxy)propyl]-10,11,12,13,15-hexahydropyrazolo[4′,3′:9,10][1,6]oxazacycloundecino[8,7,6-hi]indole-8-carboxylic Acid] | – | – | – | 3.61e-06 M | 2.31e-06 M | 3.26e-06 M
3 | 54.1 nM | 11.7 µM | 27.5 µM | > 3.3e-05 M | 2.02e-05 M | > 3.3e-05 M | – | – | – | – | – | CN1CCCn2c(C(=O)O)c(CCCOc3cccc4ccccc34)c3cccc(c32)-c2c(COc3ccc(N4CCOCC4)cc3)nn(C)c2C1 (single isomer, unassigned) [Example 1-89, (−)-7,9-dimethyl-11-{[4-(morpholin-4-yl)phenoxy]methyl}-1-[3-(naphthalen-1-yloxy)propyl]-4,5,6,7,8,9-hexahydropyrazolo[3′,4′:7,8][1,5]diazecino[9,10,1-hi]indole-2-carboxylic Acid] | > 3.3e-05 M | 1.39e-05 M | 1.14e-05 M | – | – | –

More lines, now with the values behind:

Row | Structure (SMILES) | IC50 [1] | EC50 [2] | EC50 [3] | IC50 [4] | IC50 [5] | IC50 [7] | EC50 ([2]; Homo sapiens, SU-DHL-5, 3 h) | EC50 ([3]; Homo sapiens, SU-DHL10, 3 h) | IC50 ([4]; Homo sapiens, SU-DHL-5, 72 h) | IC50 ([5]; Homo sapiens, SU-DHL10, 72 h) | IC50 ([7]; Homo sapiens, A2780, 72 h) | IC50 [6] | IC50 [8, 10] | IC50 [9, 11] | IC50 ([6]; Homo sapiens, OPM-2, 72 h) | IC50 [8, 12] | IC50 [9, 13]
4 | Cn1nc(CN2CCOCC2)c2c1COCC=CCn1c(C(=O)O)c(CCCOc3cccc4ccccc34)c3cccc-2c31 (racemic) [Example 132, (rac)-(E/Z)-1-methyl-3-(morpholin-4-ylmethyl)-7-[3-(naphthalen-1-yloxy)propyl]-1,10,13,15-tetrahydropyrazolo[4′,3′:9,10][1,6]oxazacycloundecino[8,7,6-hi]indole-8-carboxylic Acid] | 33.5 nM | – | – | – | – | – | 25.4 µM | > 33 µM | 1.78e-05 M | 6e-06 M | 1.34e-05 M | – | – | – | 1.17e-05 M | 2.81e-05 M | 1.69e-05 M
5 | Cc1nn(C)c2c1-c1cccc3c(CCCOc4cccc5cc(F)ccc45)c(C(=O)O)n(c13)CCCCOC2 (racemic) [Example 018, (rac)-7-{3-[(6-fluoronaphthalen-1-yl)oxy]propyl}-1,3-dimethyl-1,10,11,12,13,15-hexahydropyrazolo[4′,3′:9,10][1,6]oxazacycloundecino[8,7,6-hi]indole-8-carboxylic Acid] | 4.53 nM | – | – | – | – | – | 4.43 µM | 9.64 µM | 2.32e-06 M | 7.88e-06 M | > 3.3e-05 M | – | – | – | 9.67e-06 M | 3.77e-06 M | 9.04e-06 M

— patent US10981932B2, “Macrocyclic indole derivatives” (Bayer Aktiengesellschaft, priority 2016, dated 2021)
